Values of other authors, collected in patent US20120177733A1 (priority 2005, published 2012).

Experiments:
[1] = not given; remark: listed apart in the source

Row | absolute (oral) bioavailability | absolute oral bioavailability, wide range | solubility in water [1] | SMILES
1 | about 25% | 10-35% | – | CCCCC(=O)N(Cc1ccc(-c2ccccc2-c2nnn[nH]2)cc1)[C@H](C(=O)O)C(C)C [valsartan, (S)—N-valeryl-N-{[2′-(1H-tetrazole-5-yl)-biphenyl-4-yl]-methyl}-valine]
2 | 64-90% | – | slightly soluble | CCOC(=O)C1=C(COCCN)NC(C)=C(C(=O)OC)C1c1ccccc1Cl (stereo not shown) [Amlodipine besylate, 3-ethyl-5-methyl-2(2-aminoethoxymethyl)-4-(2-chlrorophenyl)-1,4-dihydro-6-methyl-3,5-pyridinedicarboxylate benzenesulphonate]
